Test system: 843782-103-R-J1-PDC complex spheroid viability
Assay: Anticancer human tumor 843782-103-R-J1-PDC patient-derived lung adenocarcinoma cell line growth inhibition [RAS]
Details: for IC50: curve of first compound; for viability, T/C: stronger effect = lower value
In short: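 Agents were tested in combination matrices in half-log decrements from a top concentration at or near clinical Cmax (10 microM if undetermined). Targets were multi-cell spheroids of tumour lines plus HUVEC and MSC stromal cells.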

[1] = second compound 0.00316 µM, first compound 0.0316 µM
[2] = second compound 0.00316 µM, first compound 0.1 µM
[3] = second compound 0.00316 µM, first compound 0.316 µM
[4] = second compound 0.00316 µM, first compound 1 µM
[5] = second compound 0.00316 µM, first compound 3.16 µM
[6] = second compound 0.00316 µM, first compound 10 µM
[7] = second compound 0.01 µM, first compound 0.0316 µM
[8] = second compound 0.01 µM, first compound 0.1 µM
[9] = second compound 0.01 µM, first compound 0.316 µM
[10] = second compound 0.01 µM, first compound 1 µM
[11] = second compound 0.01 µM, first compound 3.16 µM
[12] = second compound 0.01 µM, first compound 10 µM
[13] = second compound 0.0316 µM, first compound 0.0316 µM
[14] = second compound 0.0316 µM, first compound 0.1 µM
[15] = second compound 0.0316 µM, first compound 0.316 µM
[16] = second compound 0.0316 µM, first compound 1 µM
[17] = second compound 0.0316 µM, first compound 3.16 µM
[18] = second compound 0.0316 µM, first compound 10 µM
[19] = second compound 0.1 µM, first compound 0.0316 µM
[20] = second compound 0.1 µM, first compound 0.1 µM
[21] = second compound 0.1 µM, first compound 0.316 µM
[22] = second compound 0.1 µM, first compound 1 µM
[23] = second compound 0.1 µM, first compound 3.16 µM
[24] = second compound 0.1 µM, first compound 10 µM
[25] = second compound 0.316 µM, first compound 0.0316 µM
[26] = second compound 0.316 µM, first compound 0.1 µM
[27] = second compound 0.316 µM, first compound 0.316 µM
[28] = second compound 0.316 µM, first compound 1 µM
[29] = second compound 0.316 µM, first compound 3.16 µM
[30] = second compound 0.316 µM, first compound 10 µM
[31] = second compound 1 µM, first compound 0.0316 µM
[32] = second compound 1 µM, first compound 0.1 µM
[33] = second compound 1 µM, first compound 0.316 µM
[34] = second compound 1 µM, first compound 1 µM
[35] = second compound 1 µM, first compound 3.16 µM
[36] = second compound 1 µM, first compound 10 µM
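Note: viability read after seven days of compound exposure.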

Question: How did the IC50 (second compound 0.00316 µM) turn out when `CC1(O)CCCC1n1c(=O)c(C(F)F)cc2cnc(NC3CCN(S(C)(=O)=O)CC3)nc21` (stereo unspecified) + C=CC(=O)N1CCN(c2nc(OCC3CCCN3C)nc3c(F)c(-c4nc(N)cc(C)c4C(F)(F)F)c(Cl)cc23)C(C)C1 was run?
Answer: 147 nM

Question: And the IC50 (second compound 0.01 µM)?
Answer: 152 nM

Question: And the IC50 (second compound 0.0316 µM)?
Answer: 96.4 nM

Question: What about the IC50 (second compound 0.1 µM) of the same compound?
Answer: 126 nM

Question: What about the IC50 (second compound 0.316 µM) of the same compound?
Answer: 140 nM

Question: What about the IC50 (second compound 1 µM) of the same compound?
Answer: 138 nM

Question: What about the viability, T/C [1] of the same compound?
Answer: 84.9%

Question: What about the viability, T/C [2] of the same compound?
Answer: 61.6%

Question: And the viability, T/C [3]?
Answer: 27.7%

Question: And the viability, T/C [4]?
Answer: 24.3%

Question: What about the viability, T/C [5] of the same compound?
Answer: 24.2%

Question: What about the viability, T/C [6] of the same compound?
Answer: 2.56%

Question: What about the viability, T/C [7] of the same compound?
Answer: 81.2%

Question: And the viability, T/C [8]?
Answer: 61.4%

Question: What about the viability, T/C [9] of the same compound?
Answer: 28.2%

Question: What about the viability, T/C [10] of the same compound?
Answer: 29.2%

Question: What about the viability, T/C [11] of the same compound?
Answer: 21.7%

Question: What about the viability, T/C [12] of the same compound?
Answer: 3.18%

Question: What about the viability, T/C [13] of the same compound?
Answer: 75.9%

Question: And the viability, T/C [14]?
Answer: 49.9%

Question: And the viability, T/C [15]?
Answer: 24%

Question: And the viability, T/C [16]?
Answer: 27.5%

Question: What about the viability, T/C [17] of the same compound?
Answer: 19.6%

Question: And the viability, T/C [18]?
Answer: 2.81%

Question: What about the viability, T/C [19] of the same compound?
Answer: 78.7%

Question: And the viability, T/C [20]?
Answer: 59.2%

Question: And the viability, T/C [21]?
Answer: 24.4%

Question: And the viability, T/C [22]?
Answer: 27.2%

Question: And the viability, T/C [23]?
Answer: 23%

Question: And the viability, T/C [24]?
Answer: 2.61%

Question: What about the viability, T/C [25] of the same compound?
Answer: 86%

Question: What about the viability, T/C [26] of the same compound?
Answer: 58.8%

Question: And the viability, T/C [27]?
Answer: 26.2%

Question: And the viability, T/C [28]?
Answer: 28.5%

Question: And the viability, T/C [29]?
Answer: 25.2%

Question: What about the viability, T/C [30] of the same compound?
Answer: 2.69%

Question: And the viability, T/C [31]?
Answer: 84.1%

Question: What about the viability, T/C [32] of the same compound?
Answer: 54.1%

Question: What about the viability, T/C [33] of the same compound?
Answer: 33.1%

Question: What about the viability, T/C [34] of the same compound?
Answer: 25.1%

Question: And the viability, T/C [35]?
Answer: 17.2%

Question: What about the viability, T/C [36] of the same compound?
Answer: 2.07%

Question: How did the IC50 (second compound 0.00316 µM) turn out when `CCN1CCN(Cc2ccc(Nc3ncc(F)c(-c4cc(F)c5nc(C)n(C(C)C)c5c4)n3)nc2)CC1` + C=CC(=O)N1CCN(c2nc(OCC3CCCN3C)nc3c(F)c(-c4nc(N)cc(C)c4C(F)(F)F)c(Cl)cc23)C(C)C1 was run?
Answer: 988 nM

Question: And the IC50 (second compound 0.01 µM)?
Answer: 471 nM

Question: What about the IC50 (second compound 0.0316 µM) of the same compound?
Answer: 697 nM

Question: What about the IC50 (second compound 0.1 µM) of the same compound?
Answer: 764 nM

Question: What about the IC50 (second compound 0.316 µM) of the same compound?
Answer: > 1000 nM

Question: What about the IC50 (second compound 1 µM) of the same compound?
Answer: 836 nM

Question: And the viability, T/C (second compound 0.00316 µM, first compound 0.00316 µM)?
Answer: 86.1%

Question: And the viability, T/C (second compound 0.00316 µM, first compound 0.01 µM)?
Answer: 93.4%

Question: What about the viability, T/C [1] of the same compound?
Answer: 88.5%

Question: And the viability, T/C [2]?
Answer: 86.3%

Question: And the viability, T/C [3]?
Answer: 68.1%

Question: What about the viability, T/C [4] of the same compound?
Answer: 49.8%

Question: And the viability, T/C (second compound 0.01 µM, first compound 0.00316 µM)?
Answer: 88.4%

Question: And the viability, T/C (second compound 0.01 µM, first compound 0.01 µM)?
Answer: 86.6%

Question: What about the viability, T/C [7] of the same compound?
Answer: 86.3%

Question: What about the viability, T/C [8] of the same compound?
Answer: 74.9%

Question: What about the viability, T/C [9] of the same compound?
Answer: 53.8%

Question: And the viability, T/C [10]?
Answer: 43%

Question: And the viability, T/C (second compound 0.0316 µM, first compound 0.00316 µM)?
Answer: 83.1%

Question: And the viability, T/C (second compound 0.0316 µM, first compound 0.01 µM)?
Answer: 83.7%

Question: What about the viability, T/C [13] of the same compound?
Answer: 81.4%

Question: And the viability, T/C [14]?
Answer: 79.8%

Question: What about the viability, T/C [15] of the same compound?
Answer: 65.5%

Question: What about the viability, T/C [16] of the same compound?
Answer: 42.2%

Question: What about the viability, T/C (second compound 0.1 µM, first compound 0.00316 µM) of the same compound?
Answer: 89.5%

Question: And the viability, T/C (second compound 0.1 µM, first compound 0.01 µM)?
Answer: 81%

Question: What about the viability, T/C [19] of the same compound?
Answer: 81.5%

Question: And the viability, T/C [20]?
Answer: 80%

Question: What about the viability, T/C [21] of the same compound?
Answer: 60.7%

Question: What about the viability, T/C [22] of the same compound?
Answer: 46.7%

Question: What about the viability, T/C (second compound 0.316 µM, first compound 0.00316 µM) of the same compound?
Answer: 88.9%

Question: What about the viability, T/C (second compound 0.316 µM, first compound 0.01 µM) of the same compound?
Answer: 86%

Question: And the viability, T/C [25]?
Answer: 83.7%

Question: And the viability, T/C [26]?
Answer: 71.9%

Question: And the viability, T/C [27]?
Answer: 62.5%

Question: What about the viability, T/C [28] of the same compound?
Answer: 57.7%

Question: What about the viability, T/C (second compound 1 µM, first compound 0.00316 µM) of the same compound?
Answer: 91.1%

Question: What about the viability, T/C (second compound 1 µM, first compound 0.01 µM) of the same compound?
Answer: 83.2%

Question: What about the viability, T/C [31] of the same compound?
Answer: 86.7%

Question: And the viability, T/C [32]?
Answer: 78.3%

Question: And the viability, T/C [33]?
Answer: 63.5%

Question: What about the viability, T/C [34] of the same compound?
Answer: 47.5%

Question: Which IC50 (second compound 0.00316 µM) does the source give for `C[C@@H](NC(=O)c1ncnc(N)c1Cl)c1ncc(C(=O)Nc2cc(C(F)(F)F)c(Cl)cn2)s1` + C=CC(=O)N1CCN(c2nc(OCC3CCCN3C)nc3c(F)c(-c4nc(N)cc(C)c4C(F)(F)F)c(Cl)cc23)C(C)C1 here?
Answer: > 10000 nM

Question: And the IC50 (second compound 0.01 µM)?
Answer: > 10000 nM

Question: What about the IC50 (second compound 0.0316 µM) of the same compound?
Answer: > 10000 nM

Question: And the IC50 (second compound 0.1 µM)?
Answer: > 10000 nM

Question: What about the IC50 (second compound 0.316 µM) of the same compound?
Answer: > 10000 nM

Question: What about the IC50 (second compound 1 µM) of the same compound?
Answer: > 10000 nM

Question: What about the viability, T/C [1] of the same compound?
Answer: 92.2%

Question: And the viability, T/C [2]?
Answer: 84.3%

Question: And the viability, T/C [3]?
Answer: 92.1%

Question: What about the viability, T/C [4] of the same compound?
Answer: 91.4%

Question: And the viability, T/C [5]?
Answer: 106%

Question: And the viability, T/C [6]?
Answer: 84.9%

Question: What about the viability, T/C [7] of the same compound?
Answer: 85.2%

Question: What about the viability, T/C [8] of the same compound?
Answer: 84.2%

Question: What about the viability, T/C [9] of the same compound?
Answer: 88.4%

Question: And the viability, T/C [10]?
Answer: 88.5%

Question: What about the viability, T/C [11] of the same compound?
Answer: 91.9%

Question: What about the viability, T/C [12] of the same compound?
Answer: 91.8%

Question: What about the viability, T/C [13] of the same compound?
Answer: 87.5%

Question: And the viability, T/C [14]?
Answer: 79.8%

Question: What about the viability, T/C [15] of the same compound?
Answer: 87%

Question: And the viability, T/C [16]?
Answer: 84.9%

Question: And the viability, T/C [17]?
Answer: 94.5%

Question: What about the viability, T/C [18] of the same compound?
Answer: 89.1%

Question: What about the viability, T/C [19] of the same compound?
Answer: 90.7%

Question: And the viability, T/C [20]?
Answer: 83.7%

Question: What about the viability, T/C [21] of the same compound?
Answer: 87.3%

Question: And the viability, T/C [22]?
Answer: 90.8%

Question: And the viability, T/C [23]?
Answer: 91.5%

Question: And the viability, T/C [24]?
Answer: 88.7%

Question: What about the viability, T/C [25] of the same compound?
Answer: 88.5%

Question: What about the viability, T/C [26] of the same compound?
Answer: 87.9%

Question: What about the viability, T/C [27] of the same compound?
Answer: 90.4%

Question: And the viability, T/C [28]?
Answer: 86.6%

Question: And the viability, T/C [29]?
Answer: 95.7%

Question: What about the viability, T/C [30] of the same compound?
Answer: 91.8%

Question: What about the viability, T/C [31] of the same compound?
Answer: 82.7%

Question: And the viability, T/C [32]?
Answer: 92.2%

Question: And the viability, T/C [33]?
Answer: 97%

Question: What about the viability, T/C [34] of the same compound?
Answer: 85.3%

Question: And the viability, T/C [35]?
Answer: 92.5%

Question: And the viability, T/C [36]?
Answer: 87.3%

From PubChem BioAssay AID2060883 (Molecular Pharmacology Branch, DTP, NCI, 2025)
